Experimental data published in PubChem BioAssay (NCI).
Where “and” joins values, the source holds several entries; their conditions need not be identical. Equal entries are not always repeated.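 How tested: cells in 96-well plates exposed to compound for 48 hours at five concentrations. GI50 is the concentration that inhibits growth by half. Definition used: TGI = concentration required for complete inhibition of growth.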

Experiments:
Assay in all cases: growth of human tumour cells (NCI), 48 h
[1] = system: HCT-116 colon
[2] = system: HOP-62 NSCLC
[3] = system: SK-OV-3 ovarian
[4] = system: UACC-257 melanoma
[5] = system: K-562 leukemia
[6] = system: NCI-H460 lung
[7] = system: HCT-15 colon
[8] = system: KM12 colon
[9] = system: SF-539 CNS
[10] = system: IGROV1 ovarian

Row | Structure (SMILES) | GI50 [1] | TGI [1] | GI50 [2] | TGI [2] | GI50 [3] | TGI [3] | GI50 [4] | TGI [4] | GI50 [5] | TGI [5] | GI50 [6] | TGI [6] | GI50 [7] | TGI [7] | GI50 [8] | TGI [8] | GI50 [9] | TGI [9] | GI50 [10] | TGI [10]
1 | O=[N+]([O-])c1ccc(Nc2ccccc2-c2ccccc2)c2nonc12 | 13.9 µM | 31.6 µM | 17.4 µM | 42.7 µM | 22 µM | > 75.7 µM | 12.3 µM | 79.1 µM | 18 µM | > 100 µM | 13.1 µM | 42.3 µM | 13.2 µM | 28.2 µM | 13.9 µM | 32.5 µM | 17 µM | 39.9 µM | 12 µM | > 63.6 µM
2 | CC/C(Cc1ccccc1)=C(\c1ccc(OCCN2CCCCCC2)cc1)c1ccc(OC(=O)NCc2ccccc2)cc1 | 0.895 µM | 1.63 µM | 7.02 µM | 14.5 µM | 7.59 µM | 15.2 µM | 3.8 µM | 11.3 µM | 0.898 µM | 2.33 µM | 0.966 µM | 1.83 µM | 1.07 µM | 2.94 µM | 1.61 µM | 5.49 µM | 2.43 µM | 8.84 µM | 2.31 µM | 8.82 µM
3 | CC(=O)C1=C(O)C=C2Oc3c(C(=O)/C=C/c4cc(C(F)(F)F)cc(C(F)(F)F)c4)c(O)c(C)c(O)c3[C@]2(C)C1=O | 0.401 µM | 1.02 µM | 1.18 µM | 5.17 µM | 1.07 µM | 5.98 µM | 0.728 µM | 4.54 µM | 0.498 µM | 15 µM | 0.521 µM | 1.9 µM | 0.462 µM | 2.54 µM | 0.658 µM | 3.23 µM | 1.4 µM | 4.53 µM | 0.671 µM | 8.83 µM
4 | Cc1ccc(C(=O)O/N=C2/CCCC/C2=C\c2ccccc2)cc1 |  | 32.7 µM |  | > 100 µM |  | > 100 µM |  | > 100 µM |  | 38.6 µM |  | > 100 µM |  | > 100 µM |  | > 100 µM |  | > 100 µM |  | > 100 µM
5 | COc1ccc(C#Cc2ccccc2C#CCCCCO)cc1 | 22.5 µM | 43.7 µM | 28.6 µM | 45.4 µM | 19.9 µM | 39.7 µM | 19.5 µM | 35.8 µM | 21.9 µM | 43.9 µM | 19.4 µM | 39.9 µM | 16.3 µM | 29.9 µM | 17.7 µM | 33.4 µM | 22.6 µM | 42.8 µM | 18.8 µM | 34.1 µM
6 | Cc1ccc(C)c(NC(=O)C(=O)CC(=O)C2CCOC2=O)c1 (stereo not given) |  | > 100 µM |  | > 100 µM |  | > 100 µM |  | > 100 µM |  | > 100 µM |  | > 100 µM |  | > 100 µM |  | > 100 µM |  | > 100 µM |  | > 100 µM
7 | C=C(Cn1c(=O)c2ccccc2c2ccccc21)c1ccc(C(=O)Nc2ccccc2N)cc1 | 15.2 µM | > 100 µM | 40.9 µM | > 100 µM | 24.3 µM | > 100 µM | > 41.4 µM | > 100 µM | 0.781 µM |  | 21.3 µM | > 100 µM | 33.5 µM | > 100 µM | 25.6 µM | > 100 µM | 21.9 µM | > 100 µM | 1.36 µM | > 29 µM
8 | COc1cccc2c1C(=O)c1c(O)c3c(c(O)c1C2=O)CC(O)(C(C)=O)CC3OC1CC(N)C(O)C(C)O1 (stereo not given) |  | 2.06 µg/mL | 0.0221 µg/mL | 2.08 µg/mL | 0.0312 µg/mL | 2.68 µg/mL | 0.116 µg/mL | 2.06 µg/mL | 0.0156 µg/mL | 0.922 µg/mL |  | 2.02 µg/mL | 0.824 µg/mL | 7.86 µg/mL | 0.0445 µg/mL | 0.776 µg/mL |  | 0.113 µg/mL |  | 1.68 µg/mL
9 | O=C1OC(=O)c2c1c(-c1ccccc1)cn2-c1ccc(Cl)cc1 |  | > 100 µM |  | > 100 µM |  | > 100 µM |  | > 100 µM |  | > 100 µM |  | > 100 µM |  | > 100 µM |  | > 100 µM |  | > 100 µM |  | > 100 µM
10 | Cc1nc2sccn2c1/C=C1/C(=O)Nc2ccccc21 | 3.4 µM | 20.2 µM | 5.13 µM | > 100 µM | 24 µM | > 93.3 µM | > 100 µM | > 100 µM | > 100 µM | > 100 µM | 5.05 µM | > 100 µM | 2.46 µM | > 100 µM | 0.349 µM | > 100 µM | 3.14 µM | 17.8 µM | 2.27 µM | > 25.2 µM
11 | COc1c2c(c3c(c1C1OC(C)[C@@H](C)O1)CC(C)(C)O3)C(=O)c1ccccc1C2=O (stereo not given in full) |  | > 100 µM |  | > 100 µM |  | > 100 µM |  | > 100 µM |  | > 100 µM |  | > 100 µM |  | > 100 µM |  | > 100 µM |  | > 100 µM |  | > 100 µM
12 | COc1ccc(-c2[nH]ncc2-c2cc3c(c(OC)c2)OCC(=O)N3)cc1 | 0.403 µM | > 100 µM | 0.544 µM | 80.3 µM | 0.715 µM | > 100 µM | 3.23 µM | > 72.4 µM | 0.309 µM | > 100 µM | 0.365 µM | 4.79 µM | 0.457 µM | > 100 µM | 0.36 µM | 32.8 µM | 0.372 µM | 2.16 µM | 0.674 µM | > 100 µM
13 | CN1CCN(c2ccc(C(=O)Nc3n[nH]c4ccc(Cc5cc(F)cc(F)c5)cc34)c(NC3CCOCC3)c2)CC1 | 1.53 µM and 1.36 µM | 3.27 µM and 2.73 µM | 2.66 µM | > 10 µM | 6.65 µM and 1.7 µM | > 10 µM and 3.19 µM | 3.72 µM and 1.42 µM | > 10 µM and 2.82 µM | 1.78 µM and 1.69 µM | 4.83 µM and 3.61 µM | 2.37 µM and 1.57 µM | 9.27 µM and 3.09 µM | 1.87 µM and 1.32 µM | 6.67 µM and 2.93 µM | 0.00436 µM | 1.49 µM and 1.12 µM | 2.66 µM and 1.56 µM | > 10 µM and 2.92 µM | 0.641 µM and 1.3 µM | 3 µM and 2.72 µM
14 | CC1=CCC[C@@]2(C)C(CC[C@@H]2C(C)/C=C/C(C)C)c2ccc(cc2C(=O)O)C[C@@H](O)CC1 (stereo not given in full) |  | 20.7 µM |  | 36.5 µM |  | 32.3 µM |  | 30.5 µM |  | 26.4 µM |  | 20.1 µM |  | 18.5 µM |  | 24.8 µM |  | 21 µM |  | 27.9 µM
